Source: ChEMBL document CHEMBL1143418, “Colistin methanesulfonate against multidrug-resistant Acinetobacter baumannii in an in vitro pharmacodynamic model” (2007)
In brackets after ≈: the same amount, converted by molar mass. Activity calls are given as the source filed them. The calls are words filed in the database; no cut-off is given here.

What was measured:
Acinetobacter baumannii [1] = assay: Antibacterial activity against multidrug-resistant Acinetobacter baumannii 06-74 isolate by CLSI microdilution test; format: functional
Acinetobacter baumannii [2] = assay: Antibacterial activity against multidrug-resistant Acinetobacter baumannii 06-74 isolate assessed as reduction in bacterial load at 50 ug/ml administered as continuous infusion in vitro pharmacodynamic model after 3 to 4 hrs by time kill experiment; format: functional
Acinetobacter baumannii [3] = assay: Antibacterial activity against multidrug-resistant Acinetobacter baumannii 06-74 isolate assessed as regrowth bacterial load at 50 ug/ml administered as continuous infusion in vitro pharmacodynamic model after 3 to 4 hrs by time kill experiment; format: functional
Acinetobacter baumannii [4] = assay: Antibacterial activity against multidrug-resistant Acinetobacter baumannii 06-74 isolate by time kill experiment; format: functional, organism-based
Acinetobacter baumannii [5] = assay: (§1) Antibacterial activity against multidrug-resistant Acinetobacter baumannii 06-74 isolate assessed as prevention of bacterial regrowth at 24 ug/ml first dose and 24 ug/ml of second dose administered 12 hrs after first dose as bolus dose in in vitro pharmacodynamic model vessel measured 2 to 3 hrs after last dose by time kill experiment; format: functional, organism-based
Acinetobacter baumannii [6] = assay: Antibacterial activity against 24 ug/mL bolus dose Colistin methanesulfonate exposed multidrug-resistant Acinetobacter baumannii 06-74 isolate by CLSI microdilution test; format: functional, organism-based
Acinetobacter baumannii [7] = assay: Antibacterial activity against 3 ug/mL Colistin methanesulfonate exposed multidrug-resistant Acinetobacter baumannii 06-74 isolate by CLSI microdilution test; format: functional, organism-based
Acinetobacter baumannii [8] = assay: Antibacterial activity against 6 ug/mL Colistin methanesulfonate exposed multidrug-resistant Acinetobacter baumannii 06-74 isolate by CLSI microdilution test; format: functional, organism-based
Acinetobacter baumannii [9] = assay: Antibacterial activity against 12 ug/mL Colistin methanesulfonate exposed multidrug-resistant Acinetobacter baumannii 06-74 isolate by CLSI microdilution test; format: functional, organism-based
Acinetobacter baumannii [10] = assay: Antibacterial activity against 24 ug/mL Colistin methanesulfonate exposed multidrug-resistant Acinetobacter baumannii 06-74 isolate by CLSI microdilution test; format: functional, organism-based
Acinetobacter baumannii [11] = assay: Antibacterial activity against multidrug-resistant Acinetobacter baumannii 06-74 isolate assessed as reduction in bacterial load at 3 ug/ml administered as bolus dose after 2 to 3 hrs by time kill experiment; format: functional, organism-based
Acinetobacter baumannii [12] = assay: Antibacterial activity against multidrug-resistant Acinetobacter baumannii 06-74 isolate assessed as reduction in bacterial load at 6 ug/ml administered as bolus dose after 2 to 3 hrs by time kill experiment; format: functional, organism-based
Acinetobacter baumannii [13] = assay: Antibacterial activity against multidrug-resistant Acinetobacter baumannii 06-74 isolate assessed as reduction in bacterial load at 12 ug/ml administered as bolus dose after 2 to 3 hrs by time kill experiment; format: functional, organism-based
Acinetobacter baumannii [14] = assay: Antibacterial activity against multidrug-resistant Acinetobacter baumannii 06-74 isolate assessed as reduction in bacterial load at 24 ug/ml administered as bolus dose after 2 to 3 hrs by time kill experiment; format: functional, organism-based
Acinetobacter baumannii [15] = assay: Antibacterial activity against multidrug-resistant Acinetobacter baumannii 06-74 isolate assessed as regrowth bacterial load at 3 ug/ml administered as bolus dose after 24 hrs by time kill experiment; format: functional, organism-based
Acinetobacter baumannii [16] = assay: Antibacterial activity against multidrug-resistant Acinetobacter baumannii 06-74 isolate assessed as regrowth bacterial load at 6 ug/ml administered as bolus dose after 24 hrs by time kill experiment; format: functional, organism-based
Acinetobacter baumannii [17] = assay: Antibacterial activity against multidrug-resistant Acinetobacter baumannii 06-74 isolate assessed as regrowth bacterial load at 12 ug/ml administered as bolus dose after 24 hrs by time kill experiment; format: functional, organism-based
Acinetobacter baumannii [18] = assay: Antibacterial activity against multidrug-resistant Acinetobacter baumannii 06-74 isolate assessed as regrowth bacterial load at 24 ug/ml administered as bolus dose after 24 hrs by time kill experiment; format: functional, organism-based
Acinetobacter baumannii [19] = assay: as §1, with “as reduction in” for “as prevention of”, “bacterial load” for “bacterial regrowth”, “at 3” for “at 24”; format: functional, organism-based
Acinetobacter baumannii [20] = assay: as §1, with “as reduction in” for “as prevention of”, “bacterial load” for “bacterial regrowth”, “at 6” for “at 24”; format: functional, organism-based
Acinetobacter baumannii [21] = assay: as §1, with “as reduction in” for “as prevention of”, “bacterial load” for “bacterial regrowth”, “at 12” for “at 24”; format: functional, organism-based
Acinetobacter baumannii [22] = assay: as §1, with “reduction in” for “prevention of”, “load” for “regrowth”; format: functional, organism-based
Acinetobacter baumannii [23] = assay: as §1, with “at 3” for “at 24”; format: functional, organism-based
Acinetobacter baumannii [24] = assay: as §1, with “at 6” for “at 24”; format: functional, organism-based
Acinetobacter baumannii [25] = assay: as §1, with “at 12” for “at 24”; format: functional, organism-based

Compound `NCC[C@H](O)C(=O)N[C@@H]1C[C@H](N)[C@@H](O[C@H]2O[C@H](CN)[C@@H](O)[C@H](O)[C@H]2O)[C@H](O)[C@H]1O[C@H]1O[C@H](CO)[C@@H](O)[C@H](N)[C@H]1O` [AMIKACIN] has an MIC (Acinetobacter baumannii [1]) of at most 2 µg/mL.

Compound `CC1(C)S[C@@H]2[C@H](NC(=O)[C@H](N)c3ccccc3)C(=O)N2[C@H]1C(=O)O` [AMPICILLIN] has an MIC (Acinetobacter baumannii [1]) of at least 32 µg/mL.

`CC(C)(O/N=C(\C(=O)N[C@@H]1C(=O)N2C(C(=O)[O-])=C(C[n+]3ccccc3)CS[C@H]12)c1csc(N)n1)C(=O)O` [CEFTAZIDIME] gave a log10CFU/ml (Acinetobacter baumannii [2]) of 3, a log10CFU/ml (Acinetobacter baumannii [3]) of 6.5 and an MIC (Acinetobacter baumannii [1]) of at least 64 µg/mL.

`C[C@@H](O)[C@H]1C(=O)N2C(C(=O)O)=C(SCCNC=N)C[C@H]12` [IMIPENEM ANHYDROUS] was tested, and the MIC (Acinetobacter baumannii [1]) was at most 1 µg/mL.

`C[C@H]1COc2c(N3CCN(C)CC3)c(F)cc3c(=O)c(C(=O)O)cn1c23.C[C@H]1COc2c(N3CCN(C)CC3)c(F)cc3c(=O)c(C(=O)O)cn1c23.O` [LEVOFLOXACIN] showed an MIC (Acinetobacter baumannii [1]) of at least 8 µg/mL.

`C[C@@H](O)[C@H]1C(=O)N2C(C(=O)O)=C(S[C@@H]3CN[C@H](C(=O)N(C)C)C3)[C@H](C)[C@H]12` [MEROPENEM] showed an MIC (Acinetobacter baumannii [1]) of 1 µg/mL (≈ 2.61 µM).

Compound `O=C1CN(/N=C/c2ccc([N+](=O)[O-])o2)C(=O)N1` [NITROFURANTOIN] has an MIC (Acinetobacter baumannii [1]) of at least 512 µg/mL.

In the case of COLISTIMETHATE SODIUM, the MIC (Acinetobacter baumannii [4]) was over 2.05 mg/mL and the MIC (Acinetobacter baumannii [1]) was 2 µg/mL.

In the case of COLISTIN, the Activity (Acinetobacter baumannii [5]) was “inactive”, the Activity (Acinetobacter baumannii [2]) was “inactive” and the Activity (Acinetobacter baumannii [3]) was “inactive”. The MIC (Acinetobacter baumannii [6]) was over 128 µg/mL, the MIC (Acinetobacter baumannii [7]) was 64 µg/mL and the MIC (Acinetobacter baumannii [8]) was over 64 µg/mL. It also gave an MIC (Acinetobacter baumannii [9]) of 128 µg/mL, an MIC (Acinetobacter baumannii [10]) of over 32 µg/mL and a log10CFU/ml (Acinetobacter baumannii [11]) of 3. It also gave a log10CFU/ml (Acinetobacter baumannii [12]) of 3, a log10CFU/ml (Acinetobacter baumannii [13]) of 3 and a log10CFU/ml (Acinetobacter baumannii [14]) of 3. It also gave a log10CFU/ml (Acinetobacter baumannii [15]) of 7, a log10CFU/ml (Acinetobacter baumannii [16]) of 7 and a log10CFU/ml (Acinetobacter baumannii [17]) of 7. The log10CFU/ml (Acinetobacter baumannii [18]) was 7, the Activity (Acinetobacter baumannii [19]) was “inactive” and the Activity (Acinetobacter baumannii [20]) was “inactive”. The Activity (Acinetobacter baumannii [21]) was “inactive”, the Activity (Acinetobacter baumannii [22]) was “inactive” and the Activity (Acinetobacter baumannii [23]) was “inactive”. The Activity (Acinetobacter baumannii [24]) was “inactive” and the Activity (Acinetobacter baumannii [25]) was “inactive”.

With GENTAMICIN the MIC (Acinetobacter baumannii [1]) was over 16 µg/mL.
